From PubChem BioAssay (NCI)
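96-well plates; 48 h exposure; 5 concentrations. Endpoints by linear interpolation between flanking doses. Not reached: highest tested concentration assigned. Here, GI50 denotes the concentration required for 50% inhibition of growth. TGI denotes the concentration required for complete inhibition of growth.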

Key:
Test in all cases: inhibition of tumour cell growth, NCI panel, 48 h; in the data active means GI50 below about 0.43 µM; inactive means the rest
ACHN renal = system: ACHN renal
U251 CNS = system: U251 CNS
M14 melanoma = system: M14 melanoma
DU-145 prostate = system: DU-145 prostate
BT-549 breast = system: BT-549 breast
COLO 205 colon = system: COLO 205 colon
HT29 colon = system: HT29 colon
EKVX NSCLC = system: EKVX NSCLC
OVCAR-8 ovarian = system: OVCAR-8 ovarian
MDA-MB-231 breast = system: MDA-MB-231 breast
HCT-116 colon = system: HCT-116 colon
A549 NSCLC = system: A549 NSCLC
RPMI-8226 leukemia = system: RPMI-8226 leukemia
SF-268 CNS = system: SF-268 CNS
HOP-92 NSCLC = system: HOP-92 NSCLC
SF-539 CNS = system: SF-539 CNS
KM12 colon = system: KM12 colon
MDA-MB-435 = system: MDA-MB-435
HOP-62 NSCLC = system: HOP-62 NSCLC
SK-MEL-2 melanoma = system: SK-MEL-2 melanoma
NCI-H522 lung = system: NCI-H522 lung
SNB-19 CNS = system: SNB-19 CNS
OVCAR-4 ovarian = system: OVCAR-4 ovarian
OVCAR-5 ovarian = system: OVCAR-5 ovarian
MOLT-4 leukemia = system: MOLT-4 leukemia
NCI-H460 lung = system: NCI-H460 lung
SK-MEL-28 melanoma = system: SK-MEL-28 melanoma
K-562 leukemia = system: K-562 leukemia
LOX IMVI melanoma = system: LOX IMVI melanoma
SK-OV-3 ovarian = system: SK-OV-3 ovarian
NCI-H226 lung = system: NCI-H226 lung
OVCAR-3 ovarian = system: OVCAR-3 ovarian
CCRF-CEM leukemia = system: CCRF-CEM leukemia
RXF 393 renal = system: RXF 393 renal
CAKI-1 renal = system: CAKI-1 renal
UO-31 renal = system: UO-31 renal
MALME-3M melanoma = system: MALME-3M melanoma
UACC-62 melanoma = system: UACC-62 melanoma
HCC-2998 colon = system: HCC-2998 colon
UACC-257 melanoma = system: UACC-257 melanoma
SN12C renal = system: SN12C renal
SF-295 CNS = system: SF-295 CNS
HCT-15 colon = system: HCT-15 colon
NCI-H23 lung = system: NCI-H23 lung
786-0 renal = system: 786-0 renal
SNB-75 CNS = system: SNB-75 CNS
HL-60(TB) leukemia = system: HL-60(TB) leukemia
T-47D breast = system: T-47D breast
SK-MEL-5 melanoma = system: SK-MEL-5 melanoma
NCI/ADR-RES ovarian = system: NCI/ADR-RES ovarian
SW-620 colon = system: SW-620 colon
A498 renal = system: A498 renal
PC-3 prostate = system: PC-3 prostate
MCF7 breast = system: MCF7 breast
HS 578T breast = system: HS 578T breast
SR leukemia = system: SR leukemia
TK-10 renal = system: TK-10 renal
IGROV1 ovarian = system: IGROV1 ovarian

c1cc(CN2CCCNCCNCCCNCC2)ccc1CN1CCCNCCNCCCNCC1
> 100 µM: TGI (ACHN renal) | TGI (U251 CNS) | TGI (M14 melanoma) | TGI (DU-145 prostate) | TGI (BT-549 breast) | TGI (COLO 205 colon) | TGI (HT29 colon) | TGI (EKVX NSCLC) | TGI (OVCAR-8 ovarian) | TGI (MDA-MB-231 breast) | TGI (HCT-116 colon) | TGI (A549 NSCLC) | TGI (RPMI-8226 leukemia) | TGI (SF-268 CNS) | TGI (HOP-92 NSCLC) | TGI (SF-539 CNS) | TGI (KM12 colon) | TGI (MDA-MB-435) | TGI (HOP-62 NSCLC) | TGI (SK-MEL-2 melanoma) | TGI (NCI-H522 lung) | TGI (SNB-19 CNS) | TGI (OVCAR-4 ovarian) | TGI (OVCAR-5 ovarian) | TGI (MOLT-4 leukemia) | TGI (NCI-H460 lung) | TGI (SK-MEL-28 melanoma) | TGI (K-562 leukemia) | TGI (LOX IMVI melanoma) | TGI (SK-OV-3 ovarian) | TGI (NCI-H226 lung) | TGI (OVCAR-3 ovarian) | TGI (CCRF-CEM leukemia) | TGI (RXF 393 renal) | TGI (CAKI-1 renal) | TGI (UO-31 renal) | TGI (MALME-3M melanoma) | TGI (UACC-62 melanoma) | TGI (HCC-2998 colon) | TGI (UACC-257 melanoma) | TGI (SN12C renal) | TGI (SF-295 CNS) | TGI (HCT-15 colon) | TGI (NCI-H23 lung) | TGI (786-0 renal) | TGI (SNB-75 CNS) | TGI (HL-60(TB) leukemia) | TGI (T-47D breast) | TGI (SK-MEL-5 melanoma) | TGI (NCI/ADR-RES ovarian) | TGI (SW-620 colon) | TGI (A498 renal) | TGI (PC-3 prostate) | TGI (MCF7 breast) | TGI (HS 578T breast) | TGI (SR leukemia) | TGI (TK-10 renal) | TGI (IGROV1 ovarian)
inactive: GI50 (ACHN renal) > 100 µM | GI50 (U251 CNS) > 100 µM | GI50 (M14 melanoma) > 100 µM | GI50 (DU-145 prostate) > 100 µM | GI50 (BT-549 breast) > 100 µM | GI50 (COLO 205 colon) > 100 µM | GI50 (HT29 colon) > 100 µM | GI50 (EKVX NSCLC) > 100 µM | GI50 (OVCAR-8 ovarian) > 100 µM | GI50 (MDA-MB-231 breast) > 100 µM | GI50 (HCT-116 colon) > 100 µM | GI50 (A549 NSCLC) > 100 µM | GI50 (RPMI-8226 leukemia) > 100 µM | GI50 (SF-268 CNS) > 100 µM | GI50 (HOP-92 NSCLC) > 100 µM | GI50 (SF-539 CNS) > 100 µM | GI50 (KM12 colon) > 100 µM | GI50 (MDA-MB-435) > 100 µM | GI50 (HOP-62 NSCLC) > 100 µM | GI50 (SK-MEL-2 melanoma) > 100 µM | GI50 (NCI-H522 lung) > 100 µM | GI50 (SNB-19 CNS) > 100 µM | GI50 (OVCAR-4 ovarian) > 100 µM | GI50 (OVCAR-5 ovarian) > 100 µM | GI50 (MOLT-4 leukemia) > 100 µM | GI50 (NCI-H460 lung) > 100 µM | GI50 (SK-MEL-28 melanoma) > 100 µM | GI50 (K-562 leukemia) > 100 µM | GI50 (LOX IMVI melanoma) > 100 µM | GI50 (SK-OV-3 ovarian) > 100 µM | GI50 (NCI-H226 lung) > 100 µM | GI50 (OVCAR-3 ovarian) > 100 µM | GI50 (CCRF-CEM leukemia) > 100 µM | GI50 (RXF 393 renal) > 100 µM | GI50 (CAKI-1 renal) > 100 µM | GI50 (UO-31 renal) > 100 µM | GI50 (MALME-3M melanoma) > 100 µM | GI50 (UACC-62 melanoma) > 100 µM | GI50 (HCC-2998 colon) > 100 µM | GI50 (UACC-257 melanoma) > 100 µM | GI50 (SN12C renal) > 100 µM | GI50 (SF-295 CNS) > 100 µM | GI50 (HCT-15 colon) > 100 µM | GI50 (NCI-H23 lung) > 100 µM | GI50 (786-0 renal) > 100 µM | GI50 (SNB-75 CNS) > 100 µM | GI50 (HL-60(TB) leukemia) > 100 µM | GI50 (T-47D breast) > 100 µM | GI50 (SK-MEL-5 melanoma) > 100 µM | GI50 (NCI/ADR-RES ovarian) > 100 µM | GI50 (SW-620 colon) > 100 µM | GI50 (A498 renal) > 100 µM | GI50 (PC-3 prostate) > 100 µM | GI50 (MCF7 breast) > 100 µM | GI50 (HS 578T breast) > 100 µM | GI50 (SR leukemia) > 100 µM | GI50 (TK-10 renal) > 100 µM | GI50 (IGROV1 ovarian) > 100 µM
